Publication PMC4552634, “A New Set of Chemical Starting Points with Plasmodium falciparum Transmission-Blocking Potential for Antimalarial Drug Discovery” (PLoS ONE, 2015)
Read-outs that look alike come from different tables or passages of the source.

Legend:
[1] = test system: P. falciparum stage V gametocytes; assay: Gametocytocidal ATP bioluminescence assay (single point 5 μM and 1 μM, dose-response); assay type: cell-based, Plasmodium falciparum; conditions: for Ratio IC50 HepG2/IC50 P. falciparum: IC50 HepG2 divided by IC50 P. falciparum gametocytes
Description: Purified stage IV-V gametocytes were obtained as previously described [10]. Single point ATP bioluminescence assay and dose–response of positive hits was determined in accordance with the previously published protocol [10].

[2] = test system: luciferase reaction (BacTiter-Glo); assay: Interference assay (inhibition of the BacTiter-Glo luciferase reaction); assay type: biochemical; parameters: concentration or dose not given beside the values; conditions: ATP interference assay
Description: To discard possible false-positive results, we performed an interference assay in parallel. […] […]. The ATP solution was made by dissolving ATP powder (ATP standard from the ATPlite 1 step assay kit, reference 6016731, Perkin Elmer) in culture medium. The positive control used was the Luciferase Inhibitor I Calbiochem (Merck, 119113) at 100 μM.

[3] = Cytotoxicity in HepG2 cells (intracellular ATP, ATPlite, 48 h); assay type: cell-based, human; conditions: human, HepG2 cells
HepG2 cells = assay: as above; assay type: cell-based, human; conditions: IC50 HepG2 divided by IC50 P. falciparum gametocytes
[4] = test system: P. falciparum asexual stages; conditions: TCAMS data, cited from earlier work
[5] = test system: P. falciparum stage V gametocytes; assay: microbe, parasite or virus in culture; parameters: BacTiter-Glo ATP luminescence viability of purified stage V gametocytes in 384-well plates, per cent inhibition versus DMSO; conditions: Plasmodium falciparum, 48 h, read-out: % Inhibition
[6] = Plasmodium falciparum, P. falciparum gametocytes, average, read-out: IC50 Pf Gametocytes average, IC50 (µM) average
[7] = Plasmodium falciparum, sexual stages (gametocytes), dose-response, read-out: IC50 sexual
[8] = HepG2, 48 h exposure, intracellular ATP, read-out: IC50 (μM) Cytotoxicity HepG2
[9] = IC50 per ratio column head, unit inferred, read-out: Cytotoxicity in HepG2
[10] = P. falciparum asexual stages, read-out: IC50 (µM) Pf asexual stages
[11] = asexual stages, read-out: IC50 asexual
[12] = sexual stages (gametocytes), dose-response, read-out: IC50 sexual

Structure (SMILES) | Ratio IC50 HepG2/IC50 P. falciparum [1] | IC50 [1, 6] [µM] | IC50 [1, 7] [µM] | % Control luminiscence [2] [%] | IC50 at 48 h [3, 8] [µM] | IC50 at 48 h [3, 9] [µM] | Ratio IC50 HepG2/IC50 P. falciparum (HepG2 cells) | IC50 [4, 10] [µM] | IC50 [4, 11] [µM] | inhibition at 5 µM [5] [%] | IC50 ([1]; Plasmodium falciparum, gametocytes (S9 Table), read-out: pIC50game (converted)) [µM] | inhibition at 5 µM ([1]; Plasmodium falciparum, gametocytes, primary screen at 5 μM (S9 Table, CSA analogs)) [%] | IC50 [1, 12] [µM]
O=c1c(Br)ccccc1Br [TCMDC-142246] | 61 | 0.21 | 0.207 | 100 | 13 | 12.6 | 61 | 0.79 | 0.795 | 103 | – | – | –
COc1cccc(Nc2c(C(N)=O)cnc3ccc(-c4ccc([S+](C)[O-])cc4)cc23)c1 (centres unmarked) [TCMDC-135184] | >18 | 1.43 | 1.43 | 100 | – | > 25 | >18 | 0.19 | 0.186 | – | – | – | –
Fc1ccc2[nH]c(-c3ccc(-c4ccc(CNCCN5CCNCC5)cc4)s3)nc2c1 [TCMDC-132869] | >47 | 0.53 | – | 100 | – | > 25 | >47 | 0.78 | 0.779 | – | 0.53 | 101 | –
COc1ccc(CNC2Cc3ccccc3C2)cc1-c1ccc(OC)c(S(=O)(=O)NCCN2CCCC2)c1 [TCMDC-132251] | 15 | 1.14 | – | 100 | – | 16.6 | 15 | – | 0.773 | – | – | – | –
COc1ccc2nc3cc(Cl)ccc3c(NCCN3CCN(C)CC3)c2c1 [TCMDC-137476] | 10 | 1.88 | 1.88 | 100 | 19 | 19.3 | 10 | 0.12 | 0.124 | – | – | – | –
NCc1ccc(CNCc2cccc(-c3ccc(-c4nc5ccccc5[nH]4)cc3)c2)cc1 [TCMDC-132815] | 45 | 0.48 | – | 100 | – | 21.8 | 45 | – | 0.717 | – | – | – | 0.483
Fc1ccc2[nH]c(-c3cccc(-c4cccc(CNCCN5CCNCC5)c4)c3)nc2c1 [TCMDC-132860] | 27 | 0.74 | 0.737 | 100 | 20 | 19.6 | 27 | 0.84 | 0.842 | – | – | – | –
COc1ccc(COc2cc(NCCCN)nc3ccccc23)cc1 [TCMDC-139286] | 25 | 0.56 | – | 100 | 14 | 14 | 25 | 1.28 | 1.28 | – | – | – | –
c1ccc2c(NCCCCCCNc3ccnc4ccccc34)ccnc2c1 [TCMDC-137913] | 17 | 0.96 | – | 100 | – | 16.4 | 17 | – | 0.191 | – | – | – | 0.963
Fc1ccc2[nH]c(-c3cccc(-c4ccc(CNCCN5CCNCC5)cc4)c3)nc2c1 [TCMDC-132863] | 17 | 1.45 | 1.45 | 100 | 24 | 24.2 | 17 | 0.9 | 0.904 | – | – | – | –
COc1ccc(Nc2nccc(-c3ccc4ccnc(NCCCCN)c4c3)n2)cc1 [TCMDC-136642] | >77 | 0.33 | 0.327 | 99 | – | > 25 | >77 | – | 0.75 | – | – | – | –
c1cc(CN2CCC(CCN3CCCCC3)CC2)cc(-c2cccc(-c3nc4ccccc4[nH]3)c2)c1 [TCMDC-133920] | 45 | 0.29 | 0.293 | 100 | 13 | 13.1 | 45 | – | 0.14 | – | – | – | –
COc1cccc(C(=O)NC(C=Cc2ccccc2)c2cc(Cl)c3cccnc3c2O)c1 (centres unmarked) [TCMDC-125550] | >43 | 0.59 | – | 100 | – | > 25 | >43 | – | 0.859 | – | – | – | 0.585
